The values that follow come from patent US5696112A, “Fused heterocyclic azepines as vasopressin antagonists” (American Cyanamid Company, priority 1995, dated 1997).

Experiment [1] has as its system Vasopressin V1. As to the kind of experiment: Vasopressin V1 Antagonist Activity in Conscious Rats (vasopressin vasopressor response). In kind it is in vivo, rat. As to conditions: for inhibition in vivo at 30 mg/kg / inhibition in vivo at 10 mg/kg / inhibition in vivo at 20 mg/kg: Rattus norvegicus, read-out: Vasopressin vasopressor response, Max. % Inhibition. The procedure:
Vasopressin V1 Antagonist Activity in Conscious Rats Conscious rats are restrained in a supine position with elastic tape. The area at the base of the tail is locally anesthetization by subcutaneous infiltration with 2% procaine (0.2 ml). Using aseptic technique the ventral caudal tail artery is isolated and a cannula made of PE 10 and 20 (heat-fused) tubing is passed into the lower abdominal aorta. The cannula is secured, heparinized (1000 i.u./cc), sealed and the would closed with one or two stitches of Dexon 4-0. The caudal vein is also cannulated in the same manner for intravenous drug administration. The duration of the surgery is approximately 5 minutes. Additional local anesthesia (2% procaine or lidocaine) is provided as needed. The animals are placed in plastic restraining cages in an upright position. The cannula is attached to a […] pressure transducer and pulsatile blood pressure is recorded. […] Percentage of antagonism by the compound is calculated using the pre-drug vasopressin vasopressor response as 100%.

Experiment [2] has as its target T1, oxytocin receptors (Rattus norvegicus, UniProt P70536).
T1 construct: The uteri are dissected out, cleaned of fat and connective tissues; from tissue; host or cells: uterus membranes of DES-treated female Sprague-Dawley rats
T1 sequence (P70536 1-388): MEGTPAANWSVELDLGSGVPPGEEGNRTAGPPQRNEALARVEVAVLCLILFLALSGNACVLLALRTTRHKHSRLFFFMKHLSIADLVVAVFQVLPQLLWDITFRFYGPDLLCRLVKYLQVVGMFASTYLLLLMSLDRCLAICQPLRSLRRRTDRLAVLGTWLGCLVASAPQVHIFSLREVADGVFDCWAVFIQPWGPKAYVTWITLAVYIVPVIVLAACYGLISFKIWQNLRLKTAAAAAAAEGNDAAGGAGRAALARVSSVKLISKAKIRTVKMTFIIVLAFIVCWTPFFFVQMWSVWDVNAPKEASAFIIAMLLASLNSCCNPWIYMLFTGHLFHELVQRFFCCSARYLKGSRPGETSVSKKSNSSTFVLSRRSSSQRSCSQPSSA
As to the kind of experiment: Oxytocin Receptor Binding. On the set-up: species or system Sprague-Dawley rats. As to conditions: for IC50: 1.0 nM [3H]oxytocin. The method, boiled down:
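Membranes from uteri of DES-primed (0.3 mg/kg i.m., 18 h) female Sprague-Dawley rats incubated 60 min at 22 °C with 1.0 nM [3H]oxytocin in 50 mM Tris.HCl pH 7.4, 5 mM MgCl2 plus protease inhibitors; nonspecific binding with 1.0 uM oxytocin. IC50 from displacement after filtration.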

Read-outs that look alike come from different tables or passages of the source.

For `O=C(Nc1ccc(C(=O)N2CCCCc3sccc32)cc1)c1cc(Cl)ccc1Cl` [Example 9, N-[4-[(5,6,7,8-Tetrahydro-4H-thieno[3,2-b]azepin-4-yl)carbonyl]phenyl]2,5-dichlorobenzamide], in experiment [1] (30 mg/kg po), the “Time (Min) of Max. % Inhibition” value was determined as 180 min and the inhibition in vivo at 30 mg/kg amounted to 17%. In experiment [2], this molecule came in with a half-maximal inhibitory concentration (IC50) of 5.2 µM and an inhibition at 10 µM of 60%.
In the case of `Cc1ccccc1CC(=O)Nc1ccc(C(=O)N2CCCCc3sccc32)cc1` [Example 13, N-[4-[(5,6,7,8-Tetrahydro-4H-thieno[3,2-b]azepin-4-yl)carbonyl]phenyl]2-methylbenzeneacetamide], in experiment [1] (10 mg/kg iv), the “Time (Min) of Max. % Inhibition” value worked out at 60 min and the inhibition in vivo at 10 mg/kg stood at 80%. In experiment [2], this molecule showed a half-maximal inhibitory concentration (IC50) of 0.68 µM and an inhibition at 10 µM of 95%.
`O=C(Nc1ccc(C(=O)N2CCCCc3sccc32)c(Cl)c1)c1ccc(Cl)cc1Cl` [Example 68, N-[4-[(5,6,7,8-Tetrahydro-4H-thieno[3,2-b]azepin-4-yl)carbonyl]-3-chlorophenyl]-2,4-dichlorobenzamide]: in experiment [1] (20 mg/kg iv), the “Time (Min) of Max. % Inhibition” value came out at 120 min and the inhibition in vivo at 20 mg/kg amounted to 50%. Also, the inhibition at 10 µM in experiment [2] was found to be 55%.
As to `Cc1ccc(F)cc1C(=O)Nc1ccc(C(=O)N2CCCCc3sccc32)c(Cl)c1` [Example 70, N-[4-[(5,6,7,8-Tetrahydro-4H-thieno[3,2-b]azepin-4-yl)carbonyl]-3-chlorophenyl]-5-fluoro-2-methylbenzamide], in experiment [1] (20 mg/kg iv), the “Time (Min) of Max. % Inhibition” value is 120 min and the inhibition in vivo at 20 mg/kg is 67%. Besides, in experiment [2], the IC50 was determined as 0.51 µM and testing at 10 µM gave an inhibition of 97%.
For `O=C(Nc1ccc(C(=O)N2CCCCc3sc(Cl)cc32)cc1)c1ccc(Cl)cc1Cl` [Example 93, 2,4-Dichloro-N-[4-[(2-chloro-5,6,7,8-tetrahydro-4H-thieno[3,2-b]azepin-4-yl)carbonyl]phenyl]benzamide] the same measures were 90 min, 77%, 1.8 µM and 83%.
The like results for `Cc1c(F)cccc1C(=O)Nc1ccc(C(=O)N2CCCCc3sc(Cl)cc32)cc1` [Example 94, N-[4-[(2-Chloro-5,6,7,8-tetrahydro-4H-thieno[3,2-b]azepin-4-yl)carbonyl]phenyl]-3-fluoro-2-methylbenzamide] were, in that order, 90 min, 74%, 0.95 µM and 97%.
With `O=C(Nc1ccc(C(=O)N2CCCCc3sc(Cl)cc32)cc1)c1c(Cl)cccc1Cl` [Example 95, N-[4-[(2-Chloro-5,6,7,8-tetrahydro-4H-thieno[3,2-b]azepin-4-yl)carbonyl]phenyl]-2,6-dichlorobenzamide], in experiment [1] (10 mg/kg iv), the “Time (Min) of Max. % Inhibition” value is 30 min and the inhibition in vivo at 10 mg/kg came out at 61%. For the same molecule, in experiment [2], the IC50 was determined as 1.38 µM and testing at 10 µM gave an inhibition of 85%.
`Cc1ccccc1C(=O)Nc1ccc(C(=O)N2CCCCc3sc(Cl)cc32)cc1` [Example 96, N-[4-[(2-Chloro-5,6,7,8-tetrahydro-4H-thieno[3,2-b]azepin-4-yl)carbonyl]phenyl]-2-methylbenzamide]: in experiment [1] (10 mg/kg iv), the “Time (Min) of Max. % Inhibition” value turned out to be 90 min and the inhibition in vivo at 10 mg/kg was determined as 65%. Further, the IC50 in experiment [2] came out at 0.27 µM. Further, the inhibition at 1.25 µM in experiment [2] (1.25 μM) was 58%.
On to `Cc1c(F)cccc1C(=O)Nc1ccc(C(=O)N2CCCC(=O)c3sccc32)cc1` [Example 155, N-[4-[(5,6,7,8-Tetrahydro-8-oxo-4H-thieno[3,2-b]azepine-4-yl)carbonyl]phenyl]-3-fluoro-2-methylbenzamide], for which, in experiment [1] (20 mg/kg iv), the “Time (Min) of Max. % Inhibition” value was found to be 60 min and the inhibition in vivo at 20 mg/kg was 62%. The molecule further came in with an inhibition at 10 µM in experiment [2] of 16%.
Regarding `O=C(Nc1ccc(C(=O)N2CCCC(=O)c3sccc32)cc1)c1ccc(Cl)cc1Cl` [Example 156, N-[4-[(5,6,7,8-Tetrahydro-8-oxo-4H-thieno[3,2-b]azepin-4-yl)carbonyl]-phenyl]-2,4-dichlorobenzamide], in experiment [1] (20 mg/kg iv), the “Time (Min) of Max. % Inhibition” value was determined as 240 min and the inhibition in vivo at 20 mg/kg is 63%. In experiment [2], the inhibition at 10 µM is 0%.
Turning to `Cc1ccccc1C(=O)Nc1ccc(C(=O)N2CCCC(=O)c3sccc32)cc1` [Example 157, N-[4-[(5,6,7,8-Tetrahydro-8-oxo-4H-thieno[3,2-b]azepin-4-yl)carbonyl]-phenyl]-2-methylbenzamide], in experiment [1] (20 mg/kg iv), the “Time (Min) of Max. % Inhibition” value was determined as 60 min and the inhibition in vivo at 20 mg/kg amounted to 66%. The molecule further came in with an inhibition at 10 µM in experiment [2] of 29%.
Consider `O=C(Nc1ccc(C(=O)N2CCCCc3sccc32)c(Cl)c1)c1ccc(F)cc1Cl` [Example 183], for which, in experiment [1] (30 mg/kg iv), the “Time (Min) of Max. % Inhibition” value is 120 min and the inhibition in vivo at 30 mg/kg was 78%. Also, in experiment [2], the IC50 was 0.6 µM and 10 µM produced 86% inhibition.
